From patent US20240208992A1, “MACROCYCLES AS CFTR MODULATORS” (Idorsia Pharmaceuticals Ltd, priority 2021, published 2024)

Target: human F508del-CFTR (Homo sapiens, UniProt P13569, DEL508-508)
Test: F508del-CFTR cell surface expression (corrector activity), DiscoveRx ß-galactosidase complementation chemiluminescence assay in recombinant U2OS cell line;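 note: U2OS cells co-expressing ProLink-tagged F508del-CFTR and a membrane-anchored enzyme acceptor, where more surface CFTR restores β-galactosidase activity measured by chemiluminescence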
Conditions: U2OS cell line, 16h compound incubation; for EC50: EC50, F508del-CFTR cell surface expression, geomean values; for Emax: in relation to the Emax of the corrector lumacaftor (=100%), arithmetic mean values

human F508del-CFTR, sequence (P13569 with tags, fused parts or gaps DEL508-508): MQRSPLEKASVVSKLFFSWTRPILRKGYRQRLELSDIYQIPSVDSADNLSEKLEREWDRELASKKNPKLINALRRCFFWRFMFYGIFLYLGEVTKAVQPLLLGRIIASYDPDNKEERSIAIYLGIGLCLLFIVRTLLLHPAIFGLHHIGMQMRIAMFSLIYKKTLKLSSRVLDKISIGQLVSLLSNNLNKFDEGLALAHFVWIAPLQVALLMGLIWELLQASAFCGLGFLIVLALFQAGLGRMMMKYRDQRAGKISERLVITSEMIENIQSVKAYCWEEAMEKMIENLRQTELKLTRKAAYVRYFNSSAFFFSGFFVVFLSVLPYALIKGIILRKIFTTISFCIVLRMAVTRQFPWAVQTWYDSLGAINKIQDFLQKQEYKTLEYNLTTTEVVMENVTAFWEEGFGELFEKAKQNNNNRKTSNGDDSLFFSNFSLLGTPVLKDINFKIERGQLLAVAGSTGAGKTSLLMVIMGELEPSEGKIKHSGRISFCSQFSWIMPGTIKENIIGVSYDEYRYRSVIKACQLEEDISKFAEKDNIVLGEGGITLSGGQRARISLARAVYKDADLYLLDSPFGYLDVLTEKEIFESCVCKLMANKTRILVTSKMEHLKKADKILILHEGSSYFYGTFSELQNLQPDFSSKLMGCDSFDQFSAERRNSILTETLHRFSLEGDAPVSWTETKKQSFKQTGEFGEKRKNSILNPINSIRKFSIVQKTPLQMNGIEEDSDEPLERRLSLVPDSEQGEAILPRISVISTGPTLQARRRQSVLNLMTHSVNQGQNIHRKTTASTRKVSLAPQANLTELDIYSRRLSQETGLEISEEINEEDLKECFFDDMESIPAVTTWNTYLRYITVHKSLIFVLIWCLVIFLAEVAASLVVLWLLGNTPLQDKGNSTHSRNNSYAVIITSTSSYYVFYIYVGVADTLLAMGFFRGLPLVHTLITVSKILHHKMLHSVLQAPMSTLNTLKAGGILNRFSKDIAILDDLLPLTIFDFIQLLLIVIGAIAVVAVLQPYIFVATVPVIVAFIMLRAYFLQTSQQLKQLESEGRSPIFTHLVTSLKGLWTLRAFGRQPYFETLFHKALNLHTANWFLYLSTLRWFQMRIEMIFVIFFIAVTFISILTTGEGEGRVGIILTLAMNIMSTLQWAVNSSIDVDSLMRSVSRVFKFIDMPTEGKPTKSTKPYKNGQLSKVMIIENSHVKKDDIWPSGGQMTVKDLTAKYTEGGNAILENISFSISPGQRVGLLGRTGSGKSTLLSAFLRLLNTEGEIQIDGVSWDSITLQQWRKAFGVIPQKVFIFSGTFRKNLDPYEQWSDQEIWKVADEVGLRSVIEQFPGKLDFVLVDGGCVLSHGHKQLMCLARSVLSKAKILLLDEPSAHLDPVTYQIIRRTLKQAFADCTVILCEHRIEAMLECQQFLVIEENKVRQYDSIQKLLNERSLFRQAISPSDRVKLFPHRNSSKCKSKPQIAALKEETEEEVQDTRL

Row | Compound | EC50 [nM] | Emax (U2OS) [%] | Emax [%]
1 | CC(C)C[C@H]1C(=O)N2CCCC[C@@H]2C(=O)N[C@H](Cc2ccccc2)COc2cnc3ccccc3c2C(=O)N[C@H](C(=O)NCCc2noc(C3CC3)n2)CC(=O)N1C [Example 80, (9S,13S,19aR,22R)-22-benzyl-N-(2-(5-cyclopropyl-1,2,4-oxadiazol-3-yl)ethyl)-13-isobutyl-12-methyl-7,11,14,20-tetraoxo-7,8,9,10,11,12,13,14,17,18,19,19a,20,21,22,23-hexadecahydro-16H-pyrido[2′,1′:6,7][1]oxa[4,7,10,14]tetraazacycloheptadecino[17,16-c]quinoline-9-carboxamide] | 170 | 308 | 
2 | COc1cccc(CCNC(=O)[C@@H]2CC(=O)N(C)[C@@H](CC(C)C)C(=O)N3CCCC[C@@H]3C(=O)N[C@H](Cc3ccccc3)COc3cnc4ccccc4c3C(=O)N2)c1OC [Example 81, (9S,13S,19aR,22R)-22-benzyl-N-(2,3-dimethoxyphenethyl)-13-isobutyl-12-methyl-7,11,14,20-tetraoxo-7,8,9,10,11,12,13,14,17,18,19,19a,20,21,22,23-hexadecahydro-16H-pyrido[2′,11:6,7][1]oxa[4,7,10,14]tetraazacycloheptadecino[17,16-c]quinoline-9-carboxamide] | 233 | 232 | 
3 | COc1ccc(CCNC(=O)[C@@H]2CC(=O)N(C)[C@@H](CC(C)C)C(=O)N3CCCC[C@@H]3C(=O)N[C@H](Cc3ccccc3)COc3cnc4ccccc4c3C(=O)N2)cc1 [Example 84, (9S,13S,19aR,22R)-22-benzyl-13-isobutyl-N-(4-methoxyphenethyl)-12-methyl-7,11,14,20-tetraoxo-7,8,9,10,11,12,13,14,17,18,19,19a,20,21,22,23-hexadecahydro-16H-pyrido[2′,1′:6,7][1]oxa[4,7,10,14]tetraazacycloheptadecino[17,16-c]quinoline-9-carboxamide] | 274 | 299 | 
4 | Cc1cc(C)cc(-c2noc(CCNC(=O)[C@@H]3CC(=O)N(C)[C@@H](CC(C)C)C(=O)N4CCCC[C@@H]4C(=O)N[C@H](Cc4ccccc4)COc4cnc5ccccc5c4C(=O)N3)n2)c1 [Example 86, (9S,13S,19aR,22R)-22-benzyl-N-(2-(3-(3,5-dimethylphenyl)-1,2,4-oxadiazol-5-yl)ethyl)-13-isobutyl-12-methyl-7,11,14,20-tetraoxo-7,8,9,10,11,12,13,14,17,18,19,19a,20,21,22,23-hexadecahydro-16H-pyrido[2′,1′:6,7][1]oxa[4,7,10,14]tetraazacycloheptadecino[17,16-c]quinoline-9-carboxamide] | 314 | 157 | 
5 | CC(C)C[C@H]1C(=O)N2CCCC[C@@H]2C(=O)N[C@H](Cc2ccccc2)COc2cnc3ccccc3c2C(=O)N[C@H](C(=O)NCCc2nc(-c3ccccc3OC(F)(F)F)no2)CC(=O)N1C [Example 87, (9S,13S,19aR,22R)-22-benzyl-13-isobutyl-12-methyl-7,11,14,20-tetraoxo-N-(2-(3-(2-(trifluoromethoxy)phenyl)-1,2,4-oxadiazol-5-yl)ethyl)-7,8,9,10,11,12,13,14,17,18,19,19a,20,21,22,23-hexadecahydro-16H-pyrido[2′,1′:6,7][1]oxa[4,7,10,14]tetraazacycloheptadecino[17,16-c]quinoline-9-carboxamide] | 162 | 190 | 
6 | CC(C)C[C@H]1C(=O)N2CCCC[C@@H]2C(=O)N[C@H](Cc2ccccc2)COc2cnc3ccccc3c2C(=O)N[C@H](C(=O)NCCc2nnc(-c3ccccc3OC(F)(F)F)[nH]2)CC(=O)N1C [Example 88, (9S,13S,19aR,22R)-22-benzyl-13-isobutyl-12-methyl-7,11,14,20-tetraoxo-N-(2-(5-(2-(trifluoromethoxy)phenyl)-4H-1,2,4-triazol-3-yl)ethyl)-7,8,9,10,11,12,13,14,17,18,19,19a,20,21,22,23-hexadecahydro-16H-pyrido[2′,1′:6,7][1]oxa[4,7,10,14]tetraazacycloheptadecino[17,16-c]quinoline-9-carboxamide] | 230 | 112 | 
7 | COc1cc(CCNC(=O)[C@@H]2CC(=O)N(C)[C@@H](CC(C)C)C(=O)N3CCCC[C@@H]3C(=O)N[C@H](Cc3ccccc3)COc3cnc4ccccc4c3C(=O)N2)ccc1F [Example 91, (9S,13S,19aR,22R)-22-benzyl-N-(4-fluoro-3-methoxyphenethyl)-13-isobutyl-12-methyl-7,11,14,20-tetraoxo-7,8,9,10,11,12,13,14,17,18,19,19a,20,21,22,23-hexadecahydro-16H-pyrido[2′,1′:6,7][1]oxa[4,7,10,14]tetraazacycloheptadecino[17,16-c]quinoline-9-carboxamide] | 466 | 210 | 

Next, values leading:

Row | EC50 [nM] | Emax (U2OS) [%] | Emax [%] | Compound
8 | 544 | 277 |  | Cc1nc(CCNC(=O)[C@@H]2CC(=O)N(C)[C@@H](CC(C)C)C(=O)N3CCCC[C@@H]3C(=O)N[C@H](Cc3ccccc3)COc3cnc4ccccc4c3C(=O)N2)no1 [Example 78, (9S,13S,19aR,22R)-22-benzyl-13-isobutyl-12-methyl-N-(2-(5-methyl-1,2,4-oxadiazol-3-yl)ethyl)-7,11,14,20-tetraoxo-7,8,9,10,11,12,13,14,17,18,19,19a,20,21,22,23-hexadecahydro-16H-pyrido[2′,1′:6,7][1]oxa[4,7,10,14]tetraazacycloheptadecino[17,16-c]quinoline-9-carboxamide]
9 | 327 | 296 |  | CCc1nc(CCNC(=O)[C@@H]2CC(=O)N(C)[C@@H](CC(C)C)C(=O)N3CCCC[C@@H]3C(=O)N[C@H](Cc3ccccc3)COc3cnc4ccccc4c3C(=O)N2)no1 [Example 79, (9S,13S,19aR,22R)-22-benzyl-N-(2-(5-ethyl-1,2,4-oxadiazol-3-yl)ethyl)-13-isobutyl-12-methyl-7,11,14,20-tetraoxo-7,8,9,10,11,12,13,14,17,18,19,19a,20,21,22,23-hexadecahydro-16H-pyrido[2′,1′:6,7][1]oxa[4,7,10,14]tetraazacycloheptadecino[17,16-c]quinoline-9-carboxamide]
10 | 598 | 246 |  | Cc1oncc1CCNC(=O)[C@@H]1CC(=O)N(C)[C@@H](CC(C)C)C(=O)N2CCCC[C@@H]2C(=O)N[C@H](Cc2ccccc2)COc2cnc3ccccc3c2C(=O)N1 [Example 82, (9S,13S,19aR,22R)-22-benzyl-13-isobutyl-12-methyl-N-(2-(5-methylisoxazol-4-yl)ethyl)-7,11,14,20-tetraoxo-7,8,9,10,11,12,13,14,17,18,19,19a,20,21,22,23-hexadecahydro-16H-pyrido[2′,1′:6,7][1]oxa[4,7,10,14]tetraazacycloheptadecino[17,16-c]quinoline-9-carboxamide]
11 | 731 | 309 |  | CC(C)C[C@H]1C(=O)N2CCCC[C@@H]2C(=O)N[C@H](Cc2ccccc2)COc2cnc3ccccc3c2C(=O)N[C@H](C(=O)NCCc2cnn(C)c2)CC(=O)N1C [Example 83, (9S,13S,19aR,22R)-22-benzyl-13-isobutyl-12-methyl-N-(2-(1-methyl-1H-pyrazol-4-yl)ethyl)-7,11,14,20-tetraoxo-7,8,9,10,11,12,13,14,17,18,19,19a,20,21,22,23-hexadecahydro-16H-pyrido[2′,11:6,7][1]oxa[4,7,10,14]tetraazacycloheptadecino[17,16-c]quinoline-9-carboxamide]
12 | 260 | 244 |  | CC(C)C[C@H]1C(=O)N2CCCC[C@@H]2C(=O)N[C@H](Cc2ccccc2)COc2cnc3ccccc3c2C(=O)N[C@H](C(=O)NCCc2noc(C(C)(C)C)n2)CC(=O)N1C [Example 85, (9S,13S,19aR,22R)-22-benzyl-N-(2-(5-(tert-butyl)-1,2,4-oxadiazol-3-yl)ethyl)-13-isobutyl-12-methyl-7,11,14,20-tetraoxo-7,8,9,10,11,12,13,14,17,18,19,19a,20,21,22,23-hexadecahydro-16H-pyrido[2′,1′:6,7][1]oxa[4,7,10,14]tetraazacycloheptadecino[17,16-c]quinoline-9-carboxamide]
13 | 132 |  | 262 | CC(C)C[C@H]1C(=O)N2CCCC[C@@H]2C(=O)N[C@H](Cc2ccccc2)COc2cnc3ccccc3c2C(=O)N[C@H](C(=O)NCCc2cc(C(C)(C)C)on2)CC(=O)N1C [Example 89, (9S,13S,19aR,22R)-22-benzyl-N-(2-(5-(tert-butyl)isoxazol-3-yl)ethyl)-13-isobutyl-12-methyl-7,11,14,20-tetraoxo-7,8,9,10,11,12,13,14,17,18,19,19a,20,21,22,23-hexadecahydro-16H-pyrido[2′,1′:6,7][1]oxa[4,7,10,14]tetraazacycloheptadecino[17,16-c]quinoline-9-carboxamide]
14 | 364 |  | 129 | CC(C)C[C@H]1C(=O)N2CCCC[C@@H]2C(=O)N[C@H](Cc2ccccc2)COc2cnc3ccccc3c2C(=O)N[C@H](C(=O)NCCc2cc(C(C)(C)C)on2)CC(=O)N1C [Example 90, (9S,13S,19aS,22R)-22-benzyl-N-(2-(5-(tert-butyl)isoxazol-3-yl)ethyl)-13-isobutyl-12-methyl-7,11,14,20-tetraoxo-7,8,9,10,11,12,13,14,17,18,19,19a,20,21,22,23-hexadecahydro-16H-pyrido[2′,1′:6,7][1]oxa[4,7,10,14]tetraazacycloheptadecino[17,16-c]quinoline-9-carboxamide]
15 | 289 | 256 |  | Cc1ccc(F)c(CCNC(=O)[C@@H]2CC(=O)N(C)[C@@H](CC(C)C)C(=O)N3CCCC[C@@H]3C(=O)N[C@H](Cc3ccccc3)COc3cnc4ccccc4c3C(=O)N2)c1 [Example 92, (9S,13S,19aR,22R)-22-benzyl-N-(2-fluoro-5-methylphenethyl)-13-isobutyl-12-methyl-7,11,14,20-tetraoxo-7,8,9,10,11,12,13,14,17,18,19,19a,20,21,22,23-hexadecahydro-16H-pyrido[2′,1′:6,7][1]oxa[4,7,10,14]tetraazacycloheptadecino[17,16-c]quinoline-9-carboxamide]
